Our source for the IC50 and AC50 values is patent US20250092065A1, “2-(INDAZOL-5-YL)-6-(PIPERIDIN-4-YL)-1,7-NAPHTHYRIDINE DERIVATIVES AND RELATED COMPOUNDS AS MODULATORS FOR SPLICING NUCLEIC ACIDS AND FOR THE TREATMENT OF PROLIFERATIVE DISEASES” (REMIX THERAPEUTICS INC., priority 2022, published 2025).

Type in all cases: cell-based, human
Experiment [1] deals with Target C. Kind of experiment: HiBiT protein abundance assay, Target C (K562 HiBiT knock-in). To be noted: HiBiT knock-in K562 cells, 24 hours, top dose 10 μM. The method in brief: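 K562 HiBiT knock-in cells (10000/well) were treated 24 h at 37° C with a 10-point 3-fold dilution series (top 10 μM final, ≤0.25% DMSO). HiBiT luminescence was read after lytic LgBiT detection. Percent response used unmodified K562 and DMSO-treated knock-in controls, and IC50 came from a four-parameter fit at 50% of untreated.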
On the technique in general: HiBiT is a short tag that completes a luciferase, so light tracks the accessible tagged protein.

For experiment [2], the system named is MYB mRNA. Kind of experiment: RT-qPCR splicing assay, MYB mRNA canonical (CJ) and alternative (AJ) junction. Particulars: Homo sapiens; for AC50: MYB alternative junction mRNA, read-out: MYB AJ (increase in AJ mRNA, AC50). The procedure, abridged: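 Canonical and alternative-exon junction isoforms were quantified by RT-qPCR in cell lysates, with ΔCt against a housekeeper (GAPDH/GUSB/PPIA), then ΔΔCt vs DMSO, converted to 2^(−ΔΔCt) and percent response. K562 or A673 cells were exposed for 24 h to 11 concentrations (3-fold, top final 10 uM).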

Experiment [3] concerns HTT. Kind of experiment: HiBiT protein abundance assay, HTT (K562 HiBiT knock-in). Particulars: HiBiT knock-in K562 cells, 24 hours, top dose 10 μM. The procedure, abridged:
(§1)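 Endogenously HiBiT-tagged K562 lines were treated for 24 h at 37 °C with 10-point 3-fold dilutions (top 10 μM final, DMSO ≤0.25%). Lytic LgBiT complementation luminescence was normalized between unmodified K562 (PC) and DMSO-treated tagged cells (NC); IC50 was interpolated at 50% from a four-parameter logistic fit.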

Experiment [4] relates to MYB. Description: HiBiT protein abundance assay, MYB (K562 HiBiT knock-in). To be noted: HiBiT knock-in K562 cells, 24 hours, top dose 10 μM. The method in brief:
as §1

Setting [5] is: MYB canonical junction mRNA, RT-qPCR, read-out: MYB CJ (decrease in CJ mRNA levels, IC50).
Where [6] appears, read: canonical junction qPCR panel, Table 4, read-out: MYB IC50 (decrease in CJ mRNA levels).

Molecules are shown by their SMILES. Where a name gives a salt, the structure may show the parent alone. Read-outs that look alike come from different tables or passages of the source.

What is called IC50 is the concentration that inhibits the measured activity by half. One may read the AC50 as the concentration giving half of the maximal activity seen. For the compound `CN[C@@H]1CCN(c2cc3c(Cl)cc(-c4cc5cn(C)nc5c(C)c4O)nc3cc2C)C1` [Compound 748, 5-{4-chloro-7-methyl-6-[(3R)-3-(methylamino)pyrrolidin-1-yl]quinolin-2-yl}-2,7-dimethylindazol-6-ol], the concentration for half-maximal inhibition (IC50) in experiment [1] was more than 10000 nM; in experiment [2] (setting [5]) it was 100 to 1000 nM; in experiment [2] (setting [6]), 100 to 1000 nM; in experiment [3] it was more than 10000 nM; in experiment [4], 100 to 1000 nM. Besides, the AC50 in experiment [2] (RT-qPCR) was 1000 to 10000 nM.

As for `CN[C@H]1CCN(c2cc3c(Cl)cc(-c4cc5cn(C)nc5c(C)c4O)nc3cc2C)C1` [Compound 749, 5-{4-chloro-7-methyl-6-[(3S)-3-(methylamino)pyrrolidin-1-yl]quinolin-2-yl}-2,7-dimethylindazol-6-ol], the IC50 in experiment [1] is more than 10000 nM; in experiment [2] (setting [5]), 100 to 1000 nM; in experiment [2] (setting [6]) it was 100 to 1000 nM; in experiment [3] it was more than 10000 nM; in experiment [4], 100 to 1000 nM. In addition, the AC50 in experiment [2] (RT-qPCR) was in the range of 100 to 1000 nM.

As for `Cn1cc2cc(-c3ncc4cc(N5CCC(N6CCC6)CC5)ccc4n3)c(O)c(F)c2n1` [Compound 750, 5-{6-[4-(azetidin-1-yl)piperidin-1-yl]quinazolin-2-yl}-7-fluoro-2-methylindazol-6-ol], the IC50 in experiment [1] was 100 to 1000 nM; in experiment [2] (setting [5]), less than 100 nM; in experiment [2] (setting [6]) it was less than 100 nM; in experiment [3], 100 to 1000 nM; in experiment [4], 100 to 1000 nM. Moreover, in experiment [2] (RT-qPCR), the AC50 was 100 to 1000 nM.

As to `C[C@@H]1CN(c2ccc3nc(-c4cc5cn(C)nc5cc4O)ncc3c2)C[C@H](C)N1` [Compound 751, 5-{6-[(3R,5S)-3,5-dimethylpiperazin-1-yl]quinazolin-2-yl}-2-methylindazol-6-ol hydrochloride], the IC50 in experiment [1] is more than 10000 nM; in experiment [2] (setting [5]), 100 to 1000 nM; in experiment [2] (setting [6]) it was 100 to 1000 nM; in experiment [3] it was more than 10000 nM; in experiment [4], 100 to 1000 nM. In experiment [2] (RT-qPCR), the half-maximal activity concentration (AC50) is 100 to 1000 nM.

Take `C[C@H]1CN(c2ccc3nc(-c4cc5cn(C)nc5cc4O)ncc3c2)C[C@H](C)N1` [Compound 752, 5-{6-[(3S,5S)-3,5-dimethylpiperazin-1-yl]quinazolin-2-yl}-2-methylindazol-6-ol]: the half-inhibitory concentration (IC50) in experiment [1] is 100 to 1000 nM; in experiment [2] (setting [5]), less than 100 nM; in experiment [2] (setting [6]), less than 100 nM; in experiment [3] it was 100 to 1000 nM; in experiment [4], less than 100 nM. In addition, the AC50 in experiment [2] (RT-qPCR) was less than 100 nM.

As for `C[C@@H]1CN(c2ccc3nc(-c4cc5cn(C)nc5cc4O)ncc3c2)C[C@@H](C)N1` [Compound 753, 5-{6-[(3R,5R)-3,5-dimethylpiperazin-1-yl]quinazolin-2-yl}-2-methylindazol-6-ol], the IC50 in experiment [1], in experiment [2] (setting [5]), in experiment [2] (setting [6]), in experiment [3] and in experiment [4] was 100 to 1000 nM each time. Also, the AC50 in experiment [2] (RT-qPCR) was 100 to 1000 nM.

On to `CCN(CC)C1CCN(c2ccc3nc(-c4cc5cn(C)nc5c(F)c4O)ncc3c2)CC1` [Compound 756, 5-{6-[4-(diethylamino)piperidin-1-yl]quinazolin-2-yl}-7-fluoro-2-methylindazol-6-ol], for which the IC50 in experiment [1], in experiment [2] (setting [5]), in experiment [2] (setting [6]), in experiment [3] and in experiment [4] was 100 to 1000 nM each time. Also, the AC50 in experiment [2] (RT-qPCR) was in the range of 100 to 1000 nM.
